According to publication PMC8653662, “Cytotoxicity and Immunogenicity Evaluation of Synthetic Cell-penetrating Peptides for Methotrexate Delivery” (Iranian Journal of Pharmaceutical Research : IJPR, 2021):
Ends that are not written are not given here. MTX = methotrexate

Assays:
Raji cells = test: MTT cell viability assay; format: cell-based, Human; details: for cytotoxicity of CPPs: 5, 10, 25 and 50 μM, 24, 48 and 72 h, 570 nm, mean of three independent experiments in duplicate
Method: Human lymphoma cell line (Raji) was cultured in 75 cm^2 cell culture flasks containing RPMI 1640 medium (Gibco), which was supplemented with 10% FBS, 2 mM L-glutamine, 100 units/mL penicillin, and 100 µg/mL streptomycin ([29]). The cell culture was carried out in a humidified atmosphere of 5% CO2, 95% air, and 37 °C. The cell viability of CPPs and peptide-MTX conjugates was determined by MTT assay in Raji cells. […] […] The cell viability was determined by measuring the amount of MTT transformed to formazan salt using an ELISA reader at 570 nm (Bioteck Instruments, Winooski, VT, USA). The results were the means of three independent experiments performed in duplicate.

[1] = Zetasizer hydrodynamic size distribution and zeta potential; format: physicochemical; details: Zetasizer Nano ZS, distilled water pH 7.4, 25 °C, repeated three times
Method: The size and morphology of NGRWR peptide and NGRWR-E8 nanoparticles (as representatives) were examined by scanning electron microscopy (SEM, Mira3 FEG-SEM Tescan 5.0 kV). Samples were prepared by drop-casting of a 5 mM aqueous solution (20 µL) onto the mica surface. Then, they were lyophilized, coated with gold, and analyzed with a […] of SEM. Zetasizer Nano ZS (Malvern Instruments, Worcestershire, UK) was employed to examine the mean hydrodynamic diameter, size distribution, and zeta potential of NGRWR peptide and NGRWR-E8 nanoparticles. To this end, the samples were diluted in distilled water (pH 7.4), and the experiment was repeated three times per sample at 25 °C.

TNF-α = format: cell-based, Human; details: Raji cells; LPS 10 μg/mL; 48 h; positive control
Method: (§1) As a positive control, cells were incubated with 10 μg/mL of lipopolysaccharide (LPS) to induce IL-6 and TNF-α release. Then, the supernatant was collected and IL-6 and TNF-α secretion was evaluated using standard ELISA kits.

IL-6 = format: cell-based, Human; details: Raji cells; LPS 10 μg/mL; 48 h; positive control
Method: as §1

WRNGRWR-MTX (WRNGRWR-{MTX})
cytotoxic effect of peptide-MTX conjugates (Raji cells; 25 nM MTX, 48 h after treatment): no significant cytotoxic effect

WRWRWRNGR [linear cell-penetrating peptide …]
cytotoxicity of CPPs (Raji cells): no significant cytotoxicity

WWWWKKKK [W4K4, linear cell-penetrating peptide WWWWKKKK]
cytotoxicity of CPPs (Raji cells): no significant cytotoxicity

WRWNGRWRW [WRNGRWR, linear cell-penetrating peptide …]
cytotoxicity of CPPs (Raji cells): no significant cytotoxicity

WKWKWKWK [[WK]4, linear cell-penetrating peptide WKWKWKWK]
cytotoxicity of CPPs (Raji cells): no significant cytotoxicity

RRRRRR [R6, linear polyarginine peptide RRRRRR]
cytotoxicity of CPPs (Raji cells): no significant cytotoxicity

WWWWRRRR [W4R4, linear cell-penetrating peptide WWWWRRRR]
cytotoxicity of CPPs (Raji cells): no significant cytotoxicity

WRWRWRWR [[WR]4, linear cell-penetrating peptide WRWRWRWR]
cell viability (Raji cells; 5 μM peptide, 24 h): 40%

NGRWRWRWR [linear cell-penetrating peptide …]
size distribution, population of 16% of particles [1]: 50 nm
size distribution, population of 20% of particles [1]: 37 nm
size distribution, population of 21% of particles [1]: 50-250 nm
size distribution, population of 43% of particles [1]: 26 nm
zeta potential [1]: +11 mV
cytotoxicity of CPPs (Raji cells): no significant cytotoxicity

lipopolysaccharide [LPS]
TNF-α level enhancement over the control group (TNF-α): 100 times
IL-6 level enhancement over the control group (IL-6): 100 times
